Results taken from the supplement of paper PMC10307832.

Legend:
Assay in all cases: relative viability (nuclei count vs DMSO), 5 days (fraction); higher = more cells survive
[1] = compound: CC(C)C[C@H](NC(=O)[C@H](Cc1ccccc1)NC(=O)c1cnccn1)B(O)O [Bortezomib] + Cc1nc(NC(=O)N2CCC[C@H]2C(N)=O)sc1-c1ccnc(C(C)(C)C(F)(F)F)c1 [Alpelisib] (partner 2 µM)
Procedure, shortened: (§1)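 Cells from lung cancer lines were seeded into 1536-well plates and, one day later, dosed by pin tool. Treatments were either a single drug or a fixed dose of an anchor drug with five library-drug doses (not always all listed) in √10 steps. After 5 days, nuclei were stained in a one-step fixation (final 0.05% Triton X-100, 1% formaldehyde, 1 ug/ml Hoechst) and counted on 4× images, and relative viability is the treated-to-vehicle nuclei ratio, as the median of duplicate plates.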

[2] = compound: CC1=CC(=NN1)NC2=CC(=NC(=N2)/C=C/C3=CC=CC=C3)N4CCN(CC4)C + CC1(C)CCC(c2ccc(Cl)cc2)=C(CN2CCN(c3ccc(C(=O)NS(=O)(=O)c4ccc(N[C@H](CCN5CCOCC5)CSc5ccccc5)c(S(=O)(=O)C(F)(F)F)c4)cc3)CC2)C1 [Navitoclax] (partner 0.5 µM)
Procedure, shortened: as §1

[3] = compound: CC1=CC(=NN1)NC2=CC(=NC(=N2)/C=C/C3=CC=CC=C3)N4CCN(CC4)C + C[C@]1(O)C[C@@H](c2nc(-c3ccc4ccc(-c5ccccc5)nc4c3)c3c(N)nccn32)C1 [Linsitinib] (partner 1 µM)
Procedure, shortened: as §1

[4] = compound: COC1=CC(c2cc3ccccc3[nH]2)=N/C1=C\c1[nH]c(C)cc1C [Obatoclax] + O=C(CCCCCCC(=O)Nc1ccccc1)NO [Vorinostat] (partner 1 µM)
Procedure, shortened: as §1

Cell Line	relative viability ([1]; first compound 0.0002 µM)	relative viability ([1]; first compound 0.000632 µM)	relative viability ([1]; first compound 0.002 µM)	relative viability ([1]; first compound 0.006325 µM)	relative viability ([1]; first compound 0.02 µM)	relative viability ([2]; first compound 0.08 µM)	relative viability ([2]; first compound 0.253 µM)	relative viability ([2]; first compound 0.8 µM)	relative viability ([2]; first compound 2.53 µM)	relative viability ([2]; first compound 8 µM)	relative viability ([3]; first compound 0.08 µM)	relative viability ([3]; first compound 0.253 µM)	relative viability ([3]; first compound 0.8 µM)	relative viability ([3]; first compound 2.53 µM)	relative viability ([3]; first compound 8 µM)	relative viability ([4]; first compound 0.01 µM)	relative viability ([4]; first compound 0.03162 µM)	relative viability ([4]; first compound 0.1 µM)	relative viability ([4]; first compound 0.3162 µM)	relative viability ([4]; first compound 1 µM)
HOP-62	0.938	1.08	0.33	0.0928	0.067	0.903	1.27	1.03	1	0.124	0.959	1.11	0.99	0.875	0.326	0.573	0.575	0.639	0.741	0.403
IA-LM	0.773	0.669	0.561	0.0626	0.0159	0.733	0.76	1.12	0.669	0.148	0.561	0.61	0.878	0.752	0.729	0.993	0.89	1.05	0.905	1.11
LC-2-ad	0.838		0.898	0.0898	0.0932	0.432	0.332	0.224	0.0861	0.0584	0.732	0.803	0.473	0.122	0.0815	0.677	0.669	0.647	0.658	0.445
LCLC-97TM1	0.245	0.242	0.113	0.11	0.114	0.492	0.781	0.294	0.201	0.106	0.185	0.205	0.204	0.165	0.112	0.633	0.792	0.77	0.589	0.494
